The results in this text go back to patent US20030158403A1, “Nuclease resistant chimeric oligonucleotides” (ISIS Pharmaceuticals, Inc., priority 2001, published 2003).

For one data set, the system named is Target RNA. Kind of data set: Tm values of L-thymidine modified oligonucleotides against RNA. Type of data set: binding.
A short description of data set [1]: In vivo nuclease stability of L/D-oligonucleotide chimera, IV bolus, organs analyzed by CGE. Particulars: 24 h after IV bolus, BalbC mouse. On the procedure: Here we report the in vivo nuclease stability of L/D-oligonucleotide chimera in mouse. We synthesized the phosphoramidite and CPG derived from L-thymidine, which was synthesized from a novel route [Jung, E. M.; Xu, Y. Tetrahedron Lett. 1997, 24, 4199-4202]. A 20 mer phosphorothioate oligonucleotide ISIS-120745 (antisense to mouse ICAM-1) was capped with L-2′-deoxy thymidine at 3′and 5′-positions. The oligonucleotide was then administered IV bolus into BalbC mouse. After 24 h. mouse was sacrificed and the oligonucleotide was isolated from different organs. Percentage of full-length oligonucleotide present in different organs were analyzed by CGE.

In the oligonucleotide strings, read from the 5' end, every base follows the letter of its sugar. An asterisk marks phosphorothioate; unmarked linkages are phosphodiester. Other units and linkages are bracketed, terminal groups are in braces. A string of capitals states the bases alone. [L-DNA] = L-2'-deoxythymidine (L-thymidine); d = 2'-deoxy (DNA) Some results are limits rather than exact numbers.

For “ISIS 5132: 5′ TCCCGCTGTGATGCATT 3′ (SEQ ID NO: 6), all P = S; unmodified counterpart of 121785 (dT*dC*dC*dC*dG*dC*dT*dG*dT*dG*dA*dT*dG*dC*dA*dT*dT)”, in the data set on Target RNA, the “Tm, Target RNA” value amounted to 60.6 °C.
On to “ISIS 8651: TGCATCCCCCAGGCCACCAT (SEQ ID NO: 4), all P = S; unmodified counterpart of 120745 (dT*dG*dC*dA*dT*dC*dC*dC*dC*dC*dA*dG*dG*dC*dC*dA*dC*dC*dA*dT)”, for which the “Tm, Target RNA” value with Target RNA is 68.7 °C. Further, the degradation in organs entry in data set [1] was “degraded completely”.
“ISIS 120745: 5′ T*GC ATC CCC CAG GCC ACC AT*3′; T* = L-Thymidine, all P = S; antisense to mouse ICAM-1 (antisense TGCATCCCCCAGGCCACCAT; sugars from the 5' end [L-DNA]1 d18 [L-DNA]1, all phosphorothioate, methylation of C not given here)”: the “Tm, Target RNA” value in the data set with Target RNA amounted to 66.94 °C. Also, the ΔTm – broadly, the change in melting temperature against a reference sample – in the data set on Target RNA (relative to the unmodified parent oligonucleotide) was −1.76 °C. Besides, the “intact full-length oligonucleotide isolated from all the major organs” value in data set [1] is on record as greater than 90%.
